Test results: patent US20240190854A1, “PYRIMIDINE OR PYRIDINE DERIVATIVES USEFUL AS HCN2 MODULATORS” (King's College London, priority 2021, published 2024)
Where a name gives a salt, the structure may show the parent alone.

Key:
[1] = biological target: HCN2 (Homo sapiens (Human), UniProt Q9UL51); experiment: HCN2 current assay using PatchXpress 7000A; type: cell-based; conditions: PatchXpress protocol; read-out: PX HCN2 IC50
Method: (§1) Example 126A, Using PatchXpress 7000A
(§2) Solutions for recording HCN currents were:
The membrane voltage was then stepped back to −30 mV for a further 8 seconds.
(§3) The peak inward current measured at the end of the pulse to −110 mV (HCN1 and HCN2) or −130 mV (HCN4) was measured and any leak current subtracted to calculate the HCN current. The HCN current amplitude was measured after each control or compound addition and normalized to the control amplitude (Control A).
(§4) All experiments were performed at room temperature (approximately 22° C.).
(§5) Each test compound concentration was applied to the cell for seven (7) minutes, at which point the next cumulative concentration was applied.

[2] = biological target: HCN4 (Homo sapiens (Human), UniProt Q9Y3Q4); experiment: HCN4 current assay using PatchXpress 7000A; type: cell-based; conditions: PatchXpress protocol; read-out: PX HCN4 IC50
Method: as §1, §2, §3, §4, §5

[3] = biological target: hERG channel (Homo sapiens (Human), UniProt Q12809); experiment: hERG assay using IonWorks Quattro; type: cell-based; conditions: IonWorks protocol; read-out: IW hERG IC50
Method: Example 127A, Using IonWorks Quattro
Solutions for recording hERG currents were:
This was followed by a […] step of is to −30 mV to evoke the hERG tail current. This sequence was repeated 5 times at a frequency of 0.25 Hz (see FIG. 3). Currents were measured from the tail step at the 5th pulse and referenced to the holding current. Compounds were then incubated for 6-7 minutes prior to a second measurement of the hERG signal using an identical pulse train.

[4] = biological target: hNav1.5 (Homo sapiens (Human), UniProt Q14524)
Sequence of hNav1.5 (Q14524 whole entry): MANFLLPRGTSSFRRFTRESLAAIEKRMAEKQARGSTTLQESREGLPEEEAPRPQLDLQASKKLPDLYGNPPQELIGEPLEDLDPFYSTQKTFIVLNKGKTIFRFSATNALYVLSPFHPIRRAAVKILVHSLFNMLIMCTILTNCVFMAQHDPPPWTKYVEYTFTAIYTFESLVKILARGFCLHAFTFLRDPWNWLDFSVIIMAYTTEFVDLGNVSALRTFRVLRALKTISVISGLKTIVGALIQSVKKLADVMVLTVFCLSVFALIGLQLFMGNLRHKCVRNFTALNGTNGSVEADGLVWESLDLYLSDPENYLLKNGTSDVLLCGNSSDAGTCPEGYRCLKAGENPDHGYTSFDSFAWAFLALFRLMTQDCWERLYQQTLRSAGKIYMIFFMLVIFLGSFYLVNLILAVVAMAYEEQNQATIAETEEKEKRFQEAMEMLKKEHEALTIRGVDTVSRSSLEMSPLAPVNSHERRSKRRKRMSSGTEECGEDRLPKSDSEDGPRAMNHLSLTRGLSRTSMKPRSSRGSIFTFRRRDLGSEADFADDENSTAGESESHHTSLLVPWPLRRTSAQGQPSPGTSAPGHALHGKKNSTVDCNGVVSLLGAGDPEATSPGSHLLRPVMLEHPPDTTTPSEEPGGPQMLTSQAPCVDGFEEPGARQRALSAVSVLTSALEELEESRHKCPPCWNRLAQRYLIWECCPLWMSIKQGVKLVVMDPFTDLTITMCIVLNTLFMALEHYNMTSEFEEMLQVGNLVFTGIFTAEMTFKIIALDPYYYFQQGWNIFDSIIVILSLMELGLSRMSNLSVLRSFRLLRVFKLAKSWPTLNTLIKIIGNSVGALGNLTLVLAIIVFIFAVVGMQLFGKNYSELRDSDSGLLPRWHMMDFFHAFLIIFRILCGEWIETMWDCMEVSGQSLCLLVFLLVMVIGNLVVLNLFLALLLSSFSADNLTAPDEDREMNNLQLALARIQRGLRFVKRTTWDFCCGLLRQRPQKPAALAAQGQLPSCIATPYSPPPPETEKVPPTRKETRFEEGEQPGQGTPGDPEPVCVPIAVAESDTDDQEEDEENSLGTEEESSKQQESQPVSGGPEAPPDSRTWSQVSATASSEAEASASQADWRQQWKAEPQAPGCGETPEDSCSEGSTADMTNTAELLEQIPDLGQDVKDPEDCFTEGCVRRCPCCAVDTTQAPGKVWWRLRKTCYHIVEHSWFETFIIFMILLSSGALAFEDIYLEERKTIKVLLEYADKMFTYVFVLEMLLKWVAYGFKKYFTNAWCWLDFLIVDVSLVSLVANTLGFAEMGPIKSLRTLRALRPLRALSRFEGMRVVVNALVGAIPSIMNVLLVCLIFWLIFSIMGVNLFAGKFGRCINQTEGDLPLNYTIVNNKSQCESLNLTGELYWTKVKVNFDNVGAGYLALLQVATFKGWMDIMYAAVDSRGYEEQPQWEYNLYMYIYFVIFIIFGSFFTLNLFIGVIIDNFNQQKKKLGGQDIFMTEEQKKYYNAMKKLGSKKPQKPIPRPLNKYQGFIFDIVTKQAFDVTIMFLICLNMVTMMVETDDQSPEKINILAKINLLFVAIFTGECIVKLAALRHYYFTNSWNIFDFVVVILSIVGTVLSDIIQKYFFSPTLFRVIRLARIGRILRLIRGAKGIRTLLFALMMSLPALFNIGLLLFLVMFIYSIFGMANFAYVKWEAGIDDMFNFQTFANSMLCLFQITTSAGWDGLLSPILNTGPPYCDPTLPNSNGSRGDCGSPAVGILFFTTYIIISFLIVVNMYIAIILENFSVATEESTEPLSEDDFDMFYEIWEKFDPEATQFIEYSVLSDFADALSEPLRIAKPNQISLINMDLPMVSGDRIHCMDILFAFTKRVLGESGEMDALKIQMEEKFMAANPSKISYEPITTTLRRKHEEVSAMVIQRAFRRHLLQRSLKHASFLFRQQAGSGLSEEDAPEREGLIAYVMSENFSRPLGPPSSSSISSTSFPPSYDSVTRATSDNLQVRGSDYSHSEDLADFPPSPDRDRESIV
Method: Solutions for recording Nav1.5 currents were:
Electrophysiological recordings were made from a human embryonic kidney (HEK) cell line stably expressing the full length hNav1.5. Population patch clamp measurements were made in the perforated patch clamp configuration (100 μg ml^−1 amphotericin) at room temperature (approx. 22° C.) using an IonWorks Quattro from Molecular Devices. […] Currents were first measured under control (pre-compound addition) conditions. […] Currents were measured from the depolarising step at the 15th pulse and referenced to the holding current.

Sequence of hERG channel (Q12809 whole entry): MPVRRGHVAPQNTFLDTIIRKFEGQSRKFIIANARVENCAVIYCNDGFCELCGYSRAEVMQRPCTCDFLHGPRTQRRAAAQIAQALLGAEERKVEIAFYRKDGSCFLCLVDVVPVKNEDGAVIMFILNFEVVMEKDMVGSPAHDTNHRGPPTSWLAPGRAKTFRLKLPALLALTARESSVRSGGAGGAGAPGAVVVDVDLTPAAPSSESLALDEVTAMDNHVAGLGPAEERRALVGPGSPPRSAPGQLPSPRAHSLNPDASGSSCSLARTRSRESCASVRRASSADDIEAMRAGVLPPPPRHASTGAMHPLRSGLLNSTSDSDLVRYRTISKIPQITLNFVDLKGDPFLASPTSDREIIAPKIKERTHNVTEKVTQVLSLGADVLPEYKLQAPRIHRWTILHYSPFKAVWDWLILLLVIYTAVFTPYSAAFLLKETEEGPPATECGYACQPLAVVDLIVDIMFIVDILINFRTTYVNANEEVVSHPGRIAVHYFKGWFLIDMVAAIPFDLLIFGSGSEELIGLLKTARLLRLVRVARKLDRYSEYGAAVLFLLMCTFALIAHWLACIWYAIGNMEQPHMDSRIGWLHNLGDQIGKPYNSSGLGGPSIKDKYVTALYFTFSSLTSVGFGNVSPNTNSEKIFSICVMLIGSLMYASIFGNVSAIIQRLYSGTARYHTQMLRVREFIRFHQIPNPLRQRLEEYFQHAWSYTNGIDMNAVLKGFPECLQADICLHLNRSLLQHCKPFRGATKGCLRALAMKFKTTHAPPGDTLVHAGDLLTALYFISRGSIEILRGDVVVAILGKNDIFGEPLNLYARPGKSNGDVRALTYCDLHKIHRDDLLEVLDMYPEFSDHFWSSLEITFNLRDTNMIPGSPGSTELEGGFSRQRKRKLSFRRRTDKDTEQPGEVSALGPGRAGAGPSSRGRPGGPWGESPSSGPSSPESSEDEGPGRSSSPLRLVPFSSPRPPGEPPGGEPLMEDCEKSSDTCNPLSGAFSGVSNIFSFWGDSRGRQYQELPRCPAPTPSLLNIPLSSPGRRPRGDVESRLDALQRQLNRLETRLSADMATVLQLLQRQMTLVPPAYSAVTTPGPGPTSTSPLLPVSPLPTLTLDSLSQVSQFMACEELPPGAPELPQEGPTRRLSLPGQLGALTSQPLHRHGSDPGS
Sequence of HCN4 (Q9Y3Q4 whole entry, species assumed): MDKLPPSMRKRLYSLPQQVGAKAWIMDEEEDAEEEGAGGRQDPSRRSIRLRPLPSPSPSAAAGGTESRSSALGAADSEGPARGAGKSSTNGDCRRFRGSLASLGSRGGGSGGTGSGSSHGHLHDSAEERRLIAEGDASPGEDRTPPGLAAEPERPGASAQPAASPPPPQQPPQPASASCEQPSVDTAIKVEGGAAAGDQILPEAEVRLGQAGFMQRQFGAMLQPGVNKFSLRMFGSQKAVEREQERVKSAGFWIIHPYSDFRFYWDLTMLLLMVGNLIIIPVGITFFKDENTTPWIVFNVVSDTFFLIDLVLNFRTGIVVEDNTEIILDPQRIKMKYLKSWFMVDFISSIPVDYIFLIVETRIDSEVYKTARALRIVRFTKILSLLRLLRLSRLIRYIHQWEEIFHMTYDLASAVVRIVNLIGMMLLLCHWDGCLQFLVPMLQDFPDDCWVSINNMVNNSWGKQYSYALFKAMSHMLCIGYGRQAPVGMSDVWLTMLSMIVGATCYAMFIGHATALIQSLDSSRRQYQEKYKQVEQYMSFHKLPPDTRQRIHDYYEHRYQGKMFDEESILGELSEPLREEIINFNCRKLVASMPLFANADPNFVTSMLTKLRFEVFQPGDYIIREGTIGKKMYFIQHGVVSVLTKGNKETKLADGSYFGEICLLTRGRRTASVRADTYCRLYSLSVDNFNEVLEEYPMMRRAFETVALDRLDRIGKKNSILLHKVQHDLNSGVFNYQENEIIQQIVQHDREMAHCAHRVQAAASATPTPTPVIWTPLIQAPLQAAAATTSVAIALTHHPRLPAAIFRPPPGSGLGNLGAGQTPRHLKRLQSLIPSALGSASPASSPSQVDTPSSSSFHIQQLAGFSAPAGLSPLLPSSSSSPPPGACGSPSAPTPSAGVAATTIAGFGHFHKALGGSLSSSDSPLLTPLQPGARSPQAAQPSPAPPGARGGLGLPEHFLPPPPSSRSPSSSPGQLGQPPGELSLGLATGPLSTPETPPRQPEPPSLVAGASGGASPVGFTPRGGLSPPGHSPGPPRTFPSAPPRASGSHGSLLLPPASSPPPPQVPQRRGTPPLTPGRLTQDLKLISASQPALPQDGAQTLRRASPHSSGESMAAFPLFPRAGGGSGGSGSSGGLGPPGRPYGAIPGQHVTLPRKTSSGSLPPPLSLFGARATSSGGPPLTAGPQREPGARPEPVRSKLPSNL

**Q.** For `CC(C)C(c1ccccn1)[C@H](N)c1ccccc1-c1noc2ccccc12` (stereo partly drawn) [Example 48, (S)-1-[2-(Benzo[d]isoxazol-3-yl)phenyl]-3-methyl-2-(pyridine-2-yl)butan-1-amine hydrochloride], which IC50 [1] is on record?
**A.** 5.4 µM

**Q.** What about the IC50 [2] of the same compound?
**A.** > 30 µM

**Q.** And the IC50 [3]?
**A.** 16 µM

**Q.** What about the IC50 [4] of the same compound?
**A.** 5.3 µM

**Q.** Which results are given for `COC(=O)Nc1cccc(C[C@H](N)c2ccccc2-c2noc3ccccc23)n1` [Example 124, Methyl (S)-(6-{2-Amino-2-[2-(benzo[d]isoxazol-3-yl)phenyl]ethyl}pyridine-2-yl)carbamate hydrochloride]?
**A.** IC50 [1]: 2.1 µM; IC50 [2]: > 30 µM; IC50 [3]: 2.3 µM; IC50 [4]: 1.3 µM

**Q.** Which results are given for `CC(C)(c1ccccn1)[C@H](N)c1ccccc1-c1noc2ccccc12` [Example 49, (R)-1-[2-(Benzo[d]isoxazol-3-yl)phenyl]-2-methyl-2-(pyridine-2-yl)propane-1-amine hydrochloride]?
**A.** IC50 [1]: 6.5 µM; IC50 [2]: 22.6 µM; IC50 [3]: 5.2 µM; IC50 [4]: 3.8 µM

**Q.** With `N[C@@H](Cc1cccc(Br)n1)c1ccccc1-c1noc2ccccc12` [Example 44, (S)-1-[2-(benzo[d]isoxazol-3-yl)phenyl]-2-(6-bromopyridine-2-yl)ethan-1-amine] as the compound, how does the IC50 [1] read?
**A.** 1.2 µM

**Q.** What about the IC50 [2] of the same compound?
**A.** 7.2 µM

**Q.** And the IC50 [3]?
**A.** 12.8 µM

**Q.** What about the IC50 [4] of the same compound?
**A.** 3.7 µM

**Q.** For `Cc1cccc(C[C@H](N)c2c(F)cccc2-c2noc3ccccc23)n1` [Example 112, (S)-1-[2-(Benzo[d]isoxazol-3-yl)-6-fluorophenyl]-2-(6-methylpyridin-2-yl)ethan-1-amine hydrochloride], which IC50 [1] is on record?
**A.** 2 µM

**Q.** And the IC50 [2]?
**A.** 4.2 µM

**Q.** And the IC50 [3]?
**A.** 10.2 µM

**Q.** What about the IC50 [4] of the same compound?
**A.** 24.2 µM

**Q.** Which IC50 [1] does the source give for `CN(C)C(=O)CCc1cccc(C[C@H](N)c2ccccc2-c2noc3ccccc23)n1` [Example 109, (S)-3-(6-{2-Amino-2-[2-(benzo[d]isoxazol-3-yl)phenyl]ethyl}pyridine-2-yl)-N,N-dimethylpropanamide hydrochloride] here?
**A.** 2.4 µM

**Q.** And the IC50 [2]?
**A.** > 30 µM

**Q.** And the IC50 [3]?
**A.** 4.3 µM

**Q.** What about the IC50 [4] of the same compound?
**A.** 3.2 µM

**Q.** Which IC50 [1] does the source give for `Nc1cccc(C[C@H](N)c2ccccc2-c2noc3ccccc23)n1` [Example 121, (S)-6-{2-Amino-2-[2-(benzo[d]isoxazol-3-yl)phenyl]ethyl}pyridine-2-amine hydrochloride] here?
**A.** 1.3 µM

**Q.** What about the IC50 [2] of the same compound?
**A.** > 30 µM

**Q.** And the IC50 [3]?
**A.** 8.6 µM

**Q.** What about the IC50 [4] of the same compound?
**A.** 1.6 µM

**Q.** Which results are given for `N#Cc1cccc(C[C@H](N)c2c(F)cccc2-c2noc3ccccc23)n1` [Example 110, (S)-6-{2-Amino-2-[2-(benzo[d]isoxazol-3-yl)-6-fluorophenyl]ethyl}-2-cyanopyridine hydrochloride]?
**A.** IC50 [1]: 2.6 µM; IC50 [2]: 15.1 µM; IC50 [4]: > 33 µM

**Q.** What does the source list for `N[C@@H](Cc1nc(CCO)ccc1F)c1ccccc1-c1noc2ccccc12` [Example 77, (S)-2-(6-{2-Amino-2-(2-benzo[d]isoxazol-3-yl)phenyl]ethyl}-5-fluoropyridin-2-yl)ethan-1-ol hydrochloride]?
**A.** IC50 [1]: 0.9 µM; IC50 [2]: 10.4 µM; IC50 [3]: > 33 µM; IC50 [4]: 6.5 µM

**Q.** Which results are given for `CCc1cccc(C[C@H](N)c2ccccc2-c2noc3ccccc23)n1` [Example 101, (S)-1-[2-(Benzo[d]isoxazol-3-yl)phenyl]-2-(6-ethylpyridine-2-yl)ethan-1-amine hydrochloride]?
**A.** IC50 [1]: 0.7 µM; IC50 [2]: 13.1 µM; IC50 [3]: 2.8 µM; IC50 [4]: 1.6 µM

**Q.** Which results are given for `N#Cc1cccnc1C[C@H](N)c1ccccc1-c1noc2ccccc12` [Example 75, (S)-1-[2-(Benzo[d]isoxazol-3-yl)phenyl]-2-(3-cyanopyridin-2-yl)ethan-1-amine]?
**A.** IC50 [1]: 1.2 µM; IC50 [2]: 6.6 µM; IC50 [3]: 1.5 µM; IC50 [4]: 6.6 µM

**Q.** For `Cc1ccc(C[C@H](N)c2ccccc2-c2noc3ccccc23)nc1` [Example 92, (S)-1-[2-(Benzo[d]isoxazol-3-yl)phenyl]-2-(5-methylpyridine-2-yl)ethan-1-amine hydrochloride], which IC50 [1] is on record?
**A.** 1.9 µM

**Q.** What about the IC50 [2] of the same compound?
**A.** > 30 µM

**Q.** What about the IC50 [3] of the same compound?
**A.** 6.4 µM

**Q.** And the IC50 [4]?
**A.** 1.4 µM

**Q.** How did the IC50 [1] turn out when `N[C@@H](Cc1cc(Br)ccn1)c1ccccc1-c1noc2ccccc12` [Example 117, (S)-1-[2-(Benzo[d]isoxazol-3-yl)phenyl]-2-(4-bromopyridine-2-yl)ethan-1-amine hydrochloride)] was run?
**A.** 1.4 µM

**Q.** What about the IC50 [2] of the same compound?
**A.** 12.2 µM

**Q.** What about the IC50 [3] of the same compound?
**A.** 2.2 µM

**Q.** And the IC50 [4]?
**A.** 2.7 µM

**Q.** With `CC(C)n1nc(-c2ccccc2[C@@H](N)Cc2cccc(C#N)n2)c2ccccc21` [Example 67, (S)-2-(6-Cyanopyridine-2-yl)-1-[2-(1-isopropyl-1H-indazole-3-yl)phenyl]ethan-1-amine] as the compound, how does the IC50 [1] read?
**A.** 1.3 µM

**Q.** What about the IC50 [2] of the same compound?
**A.** 19.5 µM

**Q.** What about the IC50 [3] of the same compound?
**A.** 3.7 µM

**Q.** And the IC50 [4]?
**A.** 9.5 µM

**Q.** Which IC50 [1] does the source give for `Cc1cccnc1C[C@H](N)c1ccccc1-c1noc2ccccc12` [Example 47, (S)-1-[2-(Benzo[d]isoxazol-3-yl)phenyl]-2-(3-methylpyridine-2-yl)ethan-1-amine hydrochloride] here?
**A.** 0.6 µM

**Q.** And the IC50 [2]?
**A.** > 30 µM

**Q.** What about the IC50 [3] of the same compound?
**A.** 2.8 µM

**Q.** And the IC50 [4]?
**A.** 5.8 µM

**Q.** How did the IC50 [1] turn out when `Cn1cc(-c2cccc(C[C@H](N)c3ccccc3-c3noc4ccccc34)n2)cn1` [Example 90, (S)-1-[2-(Benzo[d]isoxazol-3-yl)phenyl]-2-[6-(1-methyl-1H-pyrazol-4-yl)pyridine-2-yl]ethan-1-amine hydrochloride] was run?
**A.** 2.9 µM

**Q.** And the IC50 [2]?
**A.** 7.1 µM

**Q.** What about the IC50 [3] of the same compound?
**A.** 4.1 µM

**Q.** What about the IC50 [4] of the same compound?
**A.** 10.6 µM

**Q.** `N#Cc1ccc(C[C@H](N)c2ccccc2-c2noc3ccccc23)nc1` [Example 93, (S)-1-[2-(Benzo[d]isoxazol-3-yl)phenyl]-2-(5-cyanopyridine-2-yl)ethan-1-amine hydrochloride] was tested. Which IC50 [1] did it give?
**A.** 1.8 µM

**Q.** And the IC50 [2]?
**A.** > 30 µM

**Q.** What about the IC50 [3] of the same compound?
**A.** 7.5 µM

**Q.** And the IC50 [4]?
**A.** 2.2 µM

**Q.** Which IC50 [1] does the source give for `N[C@@H](Cc1cccc(-c2ncco2)n1)c1ccccc1-c1noc2ccccc12` [Example 118, (S)-1-[2-(Benzo[d]isoxazol-3-yl)phenyl]-2-[6-(oxazol-2-yl)pyridine-2-yl]ethan-1-amine hydrochloride] here?
**A.** 1.7 µM

**Q.** And the IC50 [2]?
**A.** 5.2 µM

**Q.** And the IC50 [3]?
**A.** 3.1 µM

**Q.** What about the IC50 [4] of the same compound?
**A.** 7.8 µM

**Q.** Which IC50 [1] does the source give for `N[C@@H](Cc1cccc(C(=O)NCC2CC2)n1)c1ccccc1-c1noc2ccccc12` [Example 107, (S)-6-{2-Amino-2-[2-(benzo[d]isoxazol-3-yl)phenyl]ethyl}-N-(cyclopropylmethylpyridine-2-carboxamide hydrochloride] here?
**A.** 1.4 µM

**Q.** And the IC50 [2]?
**A.** 3.2 µM

**Q.** Which results are given for `N[C@@H](Cc1cccc(C(=O)N2CCOCC2)n1)c1ccccc1-c1noc2ccccc12` [Example 106, (S)-(6-{2-Amino-2-[2-(benzo[d]isoxazol-3-yl)phenyl]ethyl}pyridine-2-yl)(morpholino)methanone hydrochloride]?
**A.** IC50 [1]: 8.5 µM; IC50 [2]: > 30 µM

**Q.** `NC(=O)c1cccc(C[C@H](N)c2ccccc2-c2noc3ccccc23)n1` [Example 104, (S)-6-{2-Amino-2-[2-(benzo[d]isoxazol-3-yl)phenyl]ethyl}pyridine-2-carboxamide hydrochloride] was tested. Which IC50 [1] did it give?
**A.** 2.6 µM

**Q.** And the IC50 [2]?
**A.** 10.4 µM

**Q.** What does the source list for `N[C@@H](Cc1nc(-c2cn[nH]c2)ccc1F)c1ccccc1-c1noc2ccccc12` [Example 78, (S)-1-[2-(Benzo[d]isoxazol-3-yl)phenyl]-2-[3-fluoro-6-(1H-pyrazol-4-yl)pyridin-2-yl)ethan-1-amine hydrochloride]?
**A.** IC50 [2]: 8.3 µM; IC50 [3]: 7.6 µM; IC50 [4]: 6.4 µM

**Q.** What does the source list for `CC(C)n1nc(-c2ccccc2[C@@H](N)Cc2ccccn2)c2ccccc21` [Example 65, (S)-1-[2-(1-isopropyl-1H-indazole-3-yl)phenyl]-2-(pyridine-2-yl)ethan-1-amine hydrochloride]?
**A.** IC50 [1]: 1.1 µM; IC50 [2]: 5.1 µM

**Q.** For `Cc1cccc(C[C@H](N)c2ccccc2-c2nn(C(C)C)c3ccccc23)n1` [Example 66, (S)-1-[2-(1-Isopropyl-1H-indazole-3-yl)phenyl]-2-(6-methylpyridine-2-yl)ethan-1-amine hydrochloride], which IC50 [1] is on record?
**A.** 0.9 µM

**Q.** And the IC50 [2]?
**A.** 6.8 µM

**Q.** How did the IC50 [1] turn out when `CS(=O)(=O)Nc1cccc(C[C@H](N)c2ccccc2-c2noc3ccccc23)n1` [Example 123, (S)—N-(6-{2-Amino-2-[2-(benzo[d]isoxazol-3-yl)phenyl]ethyl}pyridine-2-yl)methanesulfonamide hydrochloride] was run?
**A.** 5.9 µM

**Q.** And the IC50 [2]?
**A.** > 30 µM

**Q.** How did the IC50 [1] turn out when `N[C@@H](Cc1ccccn1)c1ccccc1-c1noc2cc(CCO)ccc12` [Example 40, (S)-1-[2-(6-[2-Hydroxyethyl]benzo[d]isoxazol-3-yl)phenyl]-2-(pyridine-2-yl)ethan-1-amine] was run?
**A.** 15.6 µM

**Q.** What about the IC50 [3] of the same compound?
**A.** 7.8 µM

**Q.** What about the IC50 [4] of the same compound?
**A.** > 33 µM

**Q.** What does the source list for `CC(c1ccccn1)C(N)c1ccccc1-c1noc2ccccc12` (single isomer, unassigned; diastereomer 2) [Example 2, 1-[2-(Benzo[d]isoxazol-3-yl)phenyl]-2-(pyridin-2-yl)propan-1-amine hydrochloride (diastereomer 2)]?
**A.** IC50 [1]: 0.96 µM; IC50 [2]: > 30 µM

**Q.** For `Cc1ccc(Br)nc1C[C@H](N)c1ccccc1-c1noc2ccccc12` [Example 57, (S)-1-[2-(Benzo[d]isoxazol-3-yl)phenyl]-2-(6-bromo-3-methylpyridin-2-yl)ethan-1-amine hydrochloride], which IC50 [1] is on record?
**A.** 0.6 µM

**Q.** What about the IC50 [2] of the same compound?
**A.** 2.4 µM
